Source: patent US12385017B2, “Acute respiratory distress syndrome therapeutic agent” (LTT Bio-Pharma Co., Ltd., priority 2015, dated 2025)
Where two headings read alike, the source gives them in different places.

Columns and labels:
[1] = tested on: CLP-induced systemic inflammation; assay: CLP-induced systemic inflammation (plasma inflammatory cytokines); assay type: in vivo, mouse; settings: male ICR mice, drug once before CLP, plasma 8 hours after CLP
Method: (§1) A mouse was anesthetized with pentobarbital (10 mg/kg, intraperitoneally) and a small abdominal midline incision was made to expose the cecum thereof. Subsequently, the cecum was ligated at approximately 2 cm with a silk thread and punctured twice with an 18 G needle (manufactured by Terumo Corporation). Then, the abdomen was closed.
Sham mice (sham operation group) were subjected to the same operation except the ligation and puncture of the cecum. […]
The levels of BUN and creatinine in blood were measured by using a DRI-CHEM slide and LabAssay creatinine, respectively, according to the protocols. The level of inflammatory cytokines in plasma was measured by an Elisa kit according to the protocol.
A CLP operation or a sham operation was performed on male ICR mice.
Drugs were administered once before the CLP operation or the sham operation. […] Sivelestat (mg/kg) was intraperitoneally administered. EBD (Evans blue dye) (30 mg/kg) was administered intravenously 8 hours after the CLP operation. Plasma samples were prepared and the level of inflammatory cytokines in plasma was measured.
A CLP operation or a sham operation was performed on a male ICR mouse. […] A plasma sample was prepared 8 hours after the CLP investigation and the levels of BUN and creatinine (Test A) and the level of inflammatory cytokines (Test B) were measured.
A CLP operation or a sham operation was performed on a male ICR mouse. NAC (mg/kg) was administered intraperitoneally or unmodified SOD (kU/kg) was administered intravenously, once before the CLP operation. A plasma sample was prepared 8 hours after the CLP operation and the levels of BUN and creatinine (Test A) and the level of inflammatory cytokines (Test B) were measured.

[2] = tested on: mechanical ventilator (MV)-induced lung injury; assay: Mechanical ventilator (MV)-induced lung injury and change of lung mechanics; assay type: in vivo, mouse; settings: male ICR mice
Method: A mechanical ventilator for small animals was used to induce ventilator-induced lung injury (VILI). After a mouse was anesthetized with pentobarbital (10 mg/kg, intraperitoneally), tracheotomy was performed and an 8 mm metal tube was inserted into the trachea thereof. The mouse was mechanically ventilated with a tidal volume of 17.5 mL/kg, a positive end-expiratory pressure of 0 cm H2O, and a rate of 150 breaths/min.
Total respiratory elastance was measured every 30 minutes for 120 minutes by a snapshot technique.
The data were analyzed by using FlexiVent software (version 5.3 SCIREQ).
(§2) For a quantitative examination of the permeability of an organ, Evans blue (EBD) (30 mg/kg) was administered to the mouse intravenously 2 hours before sacrificing the mouse. Tissue (lung, liver, and kidney) specimens were cut into pieces and incubated with a […] for 24 hours at 60° C. The specimens were centrifuged to obtain supernatants and the quantity of EBD was determined by using absorbance at 620 nm of the specimens.
Firstly, the wet weight of a lung was measured to determine a wet-to-dry weight ratio of the lung. Then, the lung was dried at 60° C. overnight and reweighed to obtain the dry weight thereof.
A tissue specimen was fixed in 10% neutral buffered formalin for 24 hours and then embedded in paraffin before being cut into a section 4 μm thick. […]
All the scanned images were analyzed using NDP-view2 software (Hamamatsu Photonics K.K.) and Image J software. […]
EBD (Evans blue dye) (30 mg/kg) was simultaneously administered intravenously, extracted from the lung 2 hours after the MV treatment, and measured (Test A).
The wet-to-dry weight ratio of the lung was determined 2 hours after the MV treatment (Test B). […]
The lesion area was determined by ImageJ software (Test D).
Total respiratory elastance was measured every 30 minutes for 120 minutes (Test E). […]
The wet-to-dry weight ratio of the lung was determined 2 hours after the MV treatment (Tests A and C). Total respiratory elastance was measured every 30 minutes for 120 minutes (Tests B and D).

[3] = tested on: mice subjected to cecal ligation and puncture technique (CLP technique); settings: male ICR mice
Method: as §1
(§3) Sham mice (sham operation group) were subjected to the same operation except the ligation and puncture of the cecum.

[4] = tested on: reactive oxygen species (ROS); assay: In vivo imaging of reactive oxygen species (ROS), CLP model; design: species or system mouse; settings: drug once before CLP, L-012 75 mg/kg 4 hours after the CLP operation
Method: In the case of the CLP model, the mouse was euthanized 2 minutes after injection of L-012, subjected to abdominal midline incision, and imaged (five-minute intervals).
Male ICR mice were subjected to a CLP operation. Dexamethasone (200 μg/mouse) was administered intravenously once before the CLP operation (Tests A and C). Sivelestat (100 mg/kg) was administered intraperitoneally (Tests B and D). […] The sum intensity of ROS was determined by SlideBook6 software (Tests C and D).

[5] = tested on: reactive oxygen species (ROS)
Method: Measurement of reactive oxygen species (ROS) in a mouse was performed by in vivo imaging analysis with some modifications.
An imaging system (Lumazone, in vivo imaging system, SHOSHIN EM, Okazaki, Japan) including a chamber equipped with an electron multiplying CCD camera was used. L-012 (in saline), which is a luminescent probe, was administered to the mouse intravenously at 75 mg/kg.
In the case of the LPS and MV models, the mouse was euthanized 5 minutes after injection of L-012, and the lung thereof was anatomized promptly and imaged (five-minute intervals).
The data were analyzed by using SlideBook6 software (Intelligent Imaging Innovations, Inc., Denver, CO).
CLP operation (Tests A and B), LPS administration (Tests C and D), and MV treatment (Tests E and F) were performed as described above. […] A luminescent probe (L-012) (75 mg/kg) was administered 4 hours after the CLP operation, 6 hours after the LPS administration, and 2 hours after the MV treatment. An abdominal cavity (Test A) or a lung (Tests C and E) of the mouse was imaged using a Lumazone in vivo imaging system. The sum intensity of reactive oxygen species (ROS) was determined by Slide Book6 software (Tests B, D, and F).

[6] = tested on: CLP-induced multiple organ failure; assay: CLP-induced multiple organ failure (Evans blue vascular permeability, BUN, creatinine); assay type: in vivo, mouse; settings: male ICR mice, drug once before CLP, plasma 8 hours after CLP
Method: as §1, §3
A mouse was anesthetized with isoflurane and 1 mg/kg LPS (in 0.9% NaCl) was administered thereto intratracheally once using a micropipette (P200). […]
For a quantitative examination of the permeability of an organ, Evans blue (EBD) (30 mg/kg) was administered to the mouse intravenously 2 hours before sacrificing the mouse. […] The specimens were centrifuged to obtain supernatants and the quantity of EBD was determined by using absorbance at 620 nm of the specimens.
The levels of BUN and creatinine in blood were measured by using a DRI-CHEM slide and LabAssay creatinine, respectively, according to the protocols. The level of inflammatory cytokines in plasma was measured by an Elisa kit according to the protocol. […]
Drugs were administered once before the CLP operation or the sham operation. […] Two hours later, EBD was extracted from the kidney and liver and measured. […]

[7] = tested on: lipopolysaccharide (LPS)-induced lung injury
Method: A mouse was anesthetized with isoflurane and 1 mg/kg LPS (in 0.9% NaCl) was administered thereto intratracheally once using a micropipette (P200). […] In the case of sivelestat, 10 or 100 mg/kg of sivelestat (in 0.9% NaCl) was administered intraperitoneally using a 21 G needle.
as §2
BALF was collected by inserting a cannula into a trachea and performing lavage twice with 1 mL of 50 U/mL heparin (in sterile 0.9% NaCl). Usually, about 1.8 mL of BALF was collected from each mouse. The amount of proteins in BALF was determined by a Bradford assay. The level of inflammatory cytokines was determined by the Elisa kit as described above.
A tissue specimen was fixed in 10% neutral buffered formalin for 24 hours and then embedded in paraffin before being cut into a section 4 μm thick. The section was stained firstly with Mayer's hematoxylin and secondly with 1% alcoholic eosin solution (H&E staining). The specimen was mounted with malinol (mounting medium) and scanned using a NanoZoomer-XR digital slide scanner (Hamamatsu Photonics K.K.).
All the scanned images were analyzed using NDP-view2 software (Hamamatsu Photonics K.K.) and Image J software.
LPS (1 mg/kg) or vehicle (control) was administered once into a trachea of a male ICR mouse.
ESD (Evans blue dye) (30 mg/kg) was injected intravenously 6 hours after a CLP operation. Two hours later, ESD was extracted from the lung and liver and the amount thereof was measured (Test A).
A section of the lung tissue was prepared 24 hours after the LPS administration and was subjected to a histopathological examination (H&E staining) (Test B). The lesion area was determined by ImageJ software (Test C). BALF was prepared 48 hours after the LPS administration and the levels of protein (Test D) and inflammatory cytokines (Test E) were determined.

[8] = BALF 48 hours after the LPS administration (FIG. 4E)

Compound | IL-6 level in plasma [1] | TNF-α level in plasma [1] | lung edema (wet-to-dry weight ratio of the lung) ([2]; drug once immediately before MV, 2 hours after the MV treatment) | lung injury (histopathological examination, H&E staining; lesion area) ([2]; lung section 2 hours after the MV treatment (FIG. 5C, D)) | lung elastance (total respiratory elastance) ([2]; measured every 30 minutes for 120 minutes) | survival rate ([3]; administration 1, 12, 24, and 48 hours after the CLP operation (FIG. 1B)) | survival rate ([3]; administration immediately before the CLP operation and 12, 24, and 48 hours after (FIG. 1A)) | reactive oxygen species in the abdominal cavity (sum intensity, L-012) [4] | reactive oxygen species in the lung (sum intensity, L-012) ([5]; LPS, PC-SOD i.v. once before LPS, L-012 6 hours after the LPS administration) | reactive oxygen species in the lung (sum intensity, L-012) ([5]; MV, PC-SOD i.v. once before MV, L-012 2 hours after the MV treatment) | BUN (blood urea nitrogen) level [6] | creatinine level [6] | protein in BALF ([7]; BALF 48 hours after the LPS administration (FIG. 4D)) | IL-6 in BALF [7, 8] | IL-10 in BALF [7, 8] | TNF-α in BALF [7, 8] | histopathological examination of lung tissue (H&E staining) ([7]; lung section 24 hours after the LPS administration (FIG. 4B)) | lesion area of lung (ImageJ) ([7]; lung section 24 hours after the LPS administration (FIG. 4C))
CC(C)(C)C(=O)Oc1ccc(S(=O)(=O)Nc2ccccc2C(=O)NCC(=O)O)cc1 [sivelestat, sivelestat sodium hydrate, reference compound] | failed in suppressing an increase | failed in suppressing an increase | – | – | – | – | – | – | – | – | – | – | – | – | – | – | – | –
lecithinized superoxide dismutase [PC-SOD] | suppressed an increase | suppressed an increase | suppressed lung edema | suppressed lung injury | suppressed an increase in lung elastance | increased the survival rate | increased the survival rate in a dose-dependent manner | suppressed an increase of reactive oxygen species | suppressed an increase of reactive oxygen species | suppressed an increase of reactive oxygen species | suppressed an increase | suppressed an increase | suppressed an increase of protein | suppressed an increase | suppressed an increase | suppressed an increase | suppressed alveolar hemorrhage, leukocyte infiltration, and lung interstitial edema | reduced a lung disorder area
